Source: patent publication US20250230193A1, “CYCLIC COMPOUND HAVING SELECTIVE KRAS INHIBITORY EFFECT ON HRAS AND NRAS” (CHUGAI SEIYAKU KABUSHIKI KAISHA, priority 2022, published 2025)

Key:
[1] = molecular target: GDP-bound NRAS wild-type protein (Homo sapiens, UniProt P01111); assay: Binding to NRAS by surface plasmon resonance (SPR), Single Cycle Kinetics; conditions: SPR, GDP-bound NRAS wild-type vs GDP-bound KRAS wild-type
[2] = molecular target: GDP-bound HRAS wild-type protein (Homo sapiens, UniProt P01112); assay: Binding to HRAS by surface plasmon resonance (SPR), Single Cycle Kinetics; conditions: SPR, GDP-bound HRAS wild-type vs GDP-bound KRAS wild-type
Chain of GDP-bound HRAS wild-type protein (P01112 whole entry): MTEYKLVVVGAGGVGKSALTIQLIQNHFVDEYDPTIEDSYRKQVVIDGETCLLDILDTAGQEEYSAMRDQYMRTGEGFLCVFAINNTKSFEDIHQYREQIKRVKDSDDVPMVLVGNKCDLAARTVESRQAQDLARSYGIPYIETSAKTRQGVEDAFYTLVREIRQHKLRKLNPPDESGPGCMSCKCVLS

Chain of GDP-bound NRAS wild-type protein (P01111 whole entry): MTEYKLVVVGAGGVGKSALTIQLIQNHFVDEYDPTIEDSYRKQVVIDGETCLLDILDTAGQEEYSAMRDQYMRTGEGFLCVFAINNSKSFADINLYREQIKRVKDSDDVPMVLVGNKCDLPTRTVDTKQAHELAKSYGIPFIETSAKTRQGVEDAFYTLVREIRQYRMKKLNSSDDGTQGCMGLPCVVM

CCO[C@@H]1C[C@H]2C(=O)NC3(CC(C)(C)C3)C(=O)N(C)[C@@H](C3CCCC3)C(=O)N(C)[C@H](C(=O)N(CC)CC)CC(=O)N(C)[C@@H](COC)C(=O)N[C@@H]([C@@H](C)CC)C(=O)N(C)CC(=O)N(C)[C@H]3C/C=C\CCN(C3=O)[C@@H](Cc3ccc(C)cc3)C(=O)N(C)CC(=O)N[C@@H](CCc3ccc(C(F)(F)F)c(OC)c3)C(=O)N2C1 [PP2398]
NRAS/KRAS (ratio of KD value with respect to NRAS to KD value with respect to KRAS) [1]: A (a compound having 10 or more and less than 20 is denoted as A)
HRAS/KRAS (ratio of KD value with respect to HRAS to KD value with respect to KRAS) [2]: A (a compound having 10 or more and less than 20 is denoted as A)

CC[C@H](C)[C@@H]1NC(=O)[C@H](COC)N(C)C(=O)C[C@@H](C(=O)N(CC)CC)N(C)C(=O)[C@H](C2CCCC2)N(C)C(=O)C2(CC(C)(C)C2)NC(=O)[C@@H]2C[C@H](C)CN2C(=O)[C@H](CCc2ccc(C(F)(F)F)c(Cl)c2)NC(=O)CN(C)C(=O)[C@H](Cc2ccc(C)cc2)N2CC/C=C\C[C@@H](C2=O)N(C)C(=O)CN(C)C1=O [PP2399]
NRAS/KRAS (ratio of KD value with respect to NRAS to KD value with respect to KRAS) [1]: AA (a compound having 20 or more is denoted as AA)
HRAS/KRAS (ratio of KD value with respect to HRAS to KD value with respect to KRAS) [2]: A (a compound having 10 or more and less than 20 is denoted as A)

CCO[C@@H]1C[C@H]2C(=O)NC3(CC(C)(C)C3)C(=O)N(C)[C@@H](C3CCCC3)C(=O)N(C)[C@H](C(=O)N(CC)CC)CC(=O)N(C)[C@@H](COC)C(=O)N[C@@H]([C@@H](C)CC)C(=O)N(C)CC(=O)N(C)[C@H]3C/C=C\CCN(C3=O)[C@@H](Cc3ccc(C)cc3)C(=O)N(C)CC(=O)N[C@@H](CCc3ccc(C(F)(F)F)c(Cl)c3)C(=O)N2C1 [PP2400]
NRAS/KRAS (ratio of KD value with respect to NRAS to KD value with respect to KRAS) [1]: A (a compound having 10 or more and less than 20 is denoted as A)
HRAS/KRAS (ratio of KD value with respect to HRAS to KD value with respect to KRAS) [2]: A (a compound having 10 or more and less than 20 is denoted as A)

CCOC[C@H]1C(=O)N[C@@H]([C@@H](C)CC)C(=O)N(C)CC(=O)N(C)[C@H]2C/C=C\CCN(C2=O)[C@@H](Cc2ccc(C)cc2)C(=O)N(C)CC(=O)N[C@@H](CCc2ccc(C(F)(F)F)c(Cl)c2)C(=O)N2C[C@H](OCC)C[C@H]2C(=O)NC2(CC(C)(C)C2)C(=O)N(C)[C@@H](C2CCCC2)C(=O)N(C)[C@H](C(=O)N(C)CC)CC(=O)N1C [PP2401]
NRAS/KRAS (ratio of KD value with respect to NRAS to KD value with respect to KRAS) [1]: A (a compound having 10 or more and less than 20 is denoted as A)
HRAS/KRAS (ratio of KD value with respect to HRAS to KD value with respect to KRAS) [2]: A (a compound having 10 or more and less than 20 is denoted as A)

CCCOC[C@H]1C(=O)N[C@@H]([C@@H](C)CC)C(=O)N(C)CC(=O)N(C)[C@H]2C/C=C\CCN(C2=O)[C@@H](Cc2ccc(C)cc2)C(=O)N(C)CC(=O)N[C@@H](CCc2ccc(C(F)(F)F)c(Cl)c2)C(=O)N2C[C@H](OCC)C[C@H]2C(=O)NC2(CC(C)(C)C2)C(=O)N(C)[C@@H](C2CCCC2)C(=O)N(C)[C@H](C(=O)N(C)C)CC(=O)N1C [PP2402]
NRAS/KRAS (ratio of KD value with respect to NRAS to KD value with respect to KRAS) [1]: A (a compound having 10 or more and less than 20 is denoted as A)
HRAS/KRAS (ratio of KD value with respect to HRAS to KD value with respect to KRAS) [2]: A (a compound having 10 or more and less than 20 is denoted as A)

CCO[C@@H]1C[C@H]2C(=O)NC3(CC(C)(C)C3)C(=O)N(C)[C@@H](C3CCCC3)C(=O)N(C)[C@H](C(=O)N(CC)CC)CC(=O)N(C)[C@@H](COC)C(=O)N[C@@H]([C@@H](C)CC)C(=O)N(C)CC(=O)N(C)[C@H]3C/C=C\CCN(C3=O)[C@@H](Cc3ccc(C)cc3)C(=O)N(C)CC(=O)N[C@@H](CCc3cc(F)c(C(F)(F)F)c(F)c3)C(=O)N2C1 [PP2403]
NRAS/KRAS (ratio of KD value with respect to NRAS to KD value with respect to KRAS) [1]: A (a compound having 10 or more and less than 20 is denoted as A)
HRAS/KRAS (ratio of KD value with respect to HRAS to KD value with respect to KRAS) [2]: A (a compound having 10 or more and less than 20 is denoted as A)

CCOC[C@H]1C(=O)N[C@@H]([C@@H](C)CC)C(=O)N(C)CC(=O)N(C)[C@H]2C/C=C\CCN(C2=O)[C@@H](Cc2ccc(C)cc2)C(=O)N(C)CC(=O)N[C@@H](CCc2cc(F)c(C(F)(F)F)c(F)c2)C(=O)N2C[C@H](OCC)C[C@H]2C(=O)NC2(CC(C)(C)C2)C(=O)N(C)[C@@H](C2CCCC2)C(=O)N(C)[C@H](C(=O)N(C)CC)CC(=O)N1C [PP2404]
NRAS/KRAS (ratio of KD value with respect to NRAS to KD value with respect to KRAS) [1]: A (a compound having 10 or more and less than 20 is denoted as A)
HRAS/KRAS (ratio of KD value with respect to HRAS to KD value with respect to KRAS) [2]: A (a compound having 10 or more and less than 20 is denoted as A)

CCOC[C@H]1C(=O)N[C@@H]([C@@H](C)CC)C(=O)N(C)CC(=O)N(C)[C@H]2C/C=C\CCN(C2=O)[C@@H](Cc2ccc(C)cc2)C(=O)N(C)CC(=O)N[C@@H](CCc2ccc(C(F)(F)F)c(OC)c2)C(=O)N2C[C@@H](C)C[C@H]2C(=O)NC2(CC(C)(C)C2)C(=O)N(C)[C@@H](C2CCCC2)C(=O)N(C)[C@H](C(=O)N(CC)CC)CC(=O)N1C [PP2405]
NRAS/KRAS (ratio of KD value with respect to NRAS to KD value with respect to KRAS) [1]: A (a compound having 10 or more and less than 20 is denoted as A)
HRAS/KRAS (ratio of KD value with respect to HRAS to KD value with respect to KRAS) [2]: A (a compound having 10 or more and less than 20 is denoted as A)

CCOC[C@H]1C(=O)N[C@@H]([C@@H](C)CC)C(=O)N(C)CC(=O)N(C)[C@H]2C/C=C\CCN(C2=O)[C@@H](Cc2ccc(C)cc2)C(=O)N(C)CC(=O)N[C@@H](CCc2ccc(C(F)(F)F)c(OC)c2)C(=O)N2C[C@H](OCC)C[C@H]2C(=O)NC2(CC(C)(C)C2)C(=O)N(C)[C@@H](C2CCCC2)C(=O)N(C)[C@H](C(=O)N(CC)CC)CC(=O)N1C [PP2406]
NRAS/KRAS (ratio of KD value with respect to NRAS to KD value with respect to KRAS) [1]: A (a compound having 10 or more and less than 20 is denoted as A)
HRAS/KRAS (ratio of KD value with respect to HRAS to KD value with respect to KRAS) [2]: A (a compound having 10 or more and less than 20 is denoted as A)

CCOC[C@H]1C(=O)N[C@@H]([C@@H](C)CC)C(=O)N(C)CC(=O)N(C)[C@H]2C/C=C\CCN(C2=O)[C@@H](Cc2ccc(C)cc2)C(=O)N(C)CC(=O)N[C@@H](CCc2cc(F)c(C(F)(F)F)c(F)c2)C(=O)N2C[C@@H](C)C[C@H]2C(=O)NC2(CC(C)(C)C2)C(=O)N(C)[C@@H](C2CCCC2)C(=O)N(C)[C@H](C(=O)N(CC)CC)CC(=O)N1C [PP2407]
NRAS/KRAS (ratio of KD value with respect to NRAS to KD value with respect to KRAS) [1]: A (a compound having 10 or more and less than 20 is denoted as A)
HRAS/KRAS (ratio of KD value with respect to HRAS to KD value with respect to KRAS) [2]: A (a compound having 10 or more and less than 20 is denoted as A)

CCOC[C@H]1C(=O)N[C@@H]([C@@H](C)CC)C(=O)N(C)CC(=O)N(C)[C@H]2C/C=C\CCN(C2=O)[C@@H](Cc2ccc(C)cc2)C(=O)N(C)CC(=O)N[C@@H](CCc2cc(F)c(C(F)(F)F)c(F)c2)C(=O)N2C[C@H](OCC)C[C@H]2C(=O)NC2(CC(C)(C)C2)C(=O)N(C)[C@@H](C2CCCC2)C(=O)N(C)[C@H](C(=O)N(CC)CC)CC(=O)N1C [PP2408]
NRAS/KRAS (ratio of KD value with respect to NRAS to KD value with respect to KRAS) [1]: A (a compound having 10 or more and less than 20 is denoted as A)
HRAS/KRAS (ratio of KD value with respect to HRAS to KD value with respect to KRAS) [2]: A (a compound having 10 or more and less than 20 is denoted as A)

CC[C@H](C)[C@@H]1NC(=O)[C@H](CC(C)C)N(C)C(=O)C[C@@H](C(=O)N(C)C)N(C)C(=O)[C@H](C2CCCC2)N(C)C(=O)C2(CC(C)(C)C2)NC(=O)[C@@H]2C[C@H](C)CN2C(=O)[C@H](CCc2ccc(C(F)(F)F)c(OC)c2)NC(=O)CN(C)C(=O)[C@H](Cc2ccc(C)cc2)N2CC/C=C\C[C@@H](C2=O)N(C)C(=O)[C@@H]2CCCN2C1=O [PP2409]
NRAS/KRAS (ratio of KD value with respect to NRAS to KD value with respect to KRAS) [1]: A (a compound having 10 or more and less than 20 is denoted as A)
HRAS/KRAS (ratio of KD value with respect to HRAS to KD value with respect to KRAS) [2]: B (a compound having 3 or more and less than 10 is denoted as B)

CC[C@H](C)[C@@H]1NC(=O)[C@H](CC(C)C)N(C)C(=O)C[C@@H](C(=O)N(C)CC)N(C)C(=O)[C@H](C2CCCC2)N(C)C(=O)C2(CC(C)(C)C2)NC(=O)[C@@H]2C[C@H](C)CN2C(=O)[C@H](CCc2ccc(C(F)(F)F)c(OC)c2)NC(=O)CN(C)C(=O)[C@H](Cc2ccc(C)cc2)N2CC/C=C\C[C@@H](C2=O)N(C)C(=O)[C@@H]2CCCN2C1=O [PP2410]
NRAS/KRAS (ratio of KD value with respect to NRAS to KD value with respect to KRAS) [1]: A (a compound having 10 or more and less than 20 is denoted as A)
HRAS/KRAS (ratio of KD value with respect to HRAS to KD value with respect to KRAS) [2]: A (a compound having 10 or more and less than 20 is denoted as A)

CC[C@H](C)[C@@H]1NC(=O)[C@H](CC(C)C)N(C)C(=O)C[C@@H](C(=O)N(C)CC)N(C)C(=O)[C@H](C2CCCC2)N(C)C(=O)C2(CC(C)(C)C2)NC(=O)[C@@H]2C[C@H](C)CN2C(=O)[C@H](CCc2cc(F)c(C(F)(F)F)c(F)c2)NC(=O)CN(C)C(=O)[C@H](Cc2ccc(C)cc2)N2CC/C=C\C[C@@H](C2=O)N(C)C(=O)[C@@H]2CCCN2C1=O [PP2411]
NRAS/KRAS (ratio of KD value with respect to NRAS to KD value with respect to KRAS) [1]: A (a compound having 10 or more and less than 20 is denoted as A)
HRAS/KRAS (ratio of KD value with respect to HRAS to KD value with respect to KRAS) [2]: A (a compound having 10 or more and less than 20 is denoted as A)

CCO[C@H](C)[C@@H]1NC(=O)[C@H](CC(C)C)N(C)C(=O)C[C@@H](C(=O)N(C)C)N(C)C(=O)[C@H](C2CCCC2)N(C)C(=O)C2(CC(C)(C)C2)NC(=O)[C@@H]2C[C@H](C)CN2C(=O)[C@H](CCc2ccc(C(F)(F)F)c(OC)c2)NC(=O)CN(C)C(=O)[C@H](Cc2ccc(C)cc2)N2CC/C=C\C[C@@H](C2=O)N(C)C(=O)CN(C)C1=O [PP2412]
NRAS/KRAS (ratio of KD value with respect to NRAS to KD value with respect to KRAS) [1]: A (a compound having 10 or more and less than 20 is denoted as A)
HRAS/KRAS (ratio of KD value with respect to HRAS to KD value with respect to KRAS) [2]: B (a compound having 3 or more and less than 10 is denoted as B)
